Experimental data taken from ChEMBL document CHEMBL1144604, “Synthesis and biological evaluation of phosphonate derivatives as autotaxin (ATX) inhibitors” (Bioorg Med Chem Lett, 2007).

Legend:
Autotaxin (Homo sapiens) [1] = target: Autotaxin (Homo sapiens) (UniProt Q13822); assay: Inhibition of human recombinant ATX at 10 uM after 16 hrs; values are per cent of control
Autotaxin (Homo sapiens) [2] = target: Autotaxin (Homo sapiens) (UniProt Q13822); assay: Inhibition of human recombinant ATX at 100 uM after 16 hrs; values are per cent of control
Autotaxin (Homo sapiens) [3] = target: Autotaxin (Homo sapiens) (UniProt Q13822); assay: Inhibition of human recombinant ATX at 1 uM after 16 hrs; values are per cent of control

Row | residual activity (Autotaxin (Homo sapiens) [1]) | residual activity (Autotaxin (Homo sapiens) [2]) | residual activity (Autotaxin (Homo sapiens) [3]) | Compound
1 | 86% | 30% |  | CCCCCCCCCC(=O)N[C@H](Cc1ccc(OCc2ncc(C)c(OC)c2C)cc1)C(O)CP(=O)(O)O (stereo partly specified)
2 | 68% | 45% | 96% | CCCCCCCCCCCCCCCC(=O)N[C@@H](Cc1ccc(OC)cc1)C(=O)CP(=O)(O)O
3 | 104% | 85% | 104% | CCCCCCCCCCCCCCCC(=O)N[C@@H](Cc1ccc(OCCC(C)C)cc1)C(=O)CP(=O)(O)O
4 | 97% | 72% |  | CCCCCCCCCCCCCCCC(=O)N[C@@H](Cc1ccc(OCCC)cc1)C(=O)CP(=O)(O)O
5 | 83% |  | 95% | CCCCCCCCCCCCCCCC(=O)N[C@@H](Cc1ccc(OCCCCC)cc1)C(=O)CP(=O)(O)O
6 | 68% | 44% | 79% | CCCCCCCCCCCCCCCC(=O)N[C@@H](Cc1ccc(OCc2cc(OCC(F)(F)F)ccn2)cc1)C(=O)CP(=O)(O)O
7 | 71% | 61% |  | CCCCCCCCCCCCCCCC(=O)N[C@@H](Cc1ccc(OCc2ccccc2)cc1)C(=O)CP(=O)(O)O
8 | 72% | 50% | 102% | CCCCCCCCCCCCCCCC(=O)N[C@@H](Cc1ccc(OCc2ccccn2)cc1)C(=O)CP(=O)(O)O
9 | 71% | 32% | 84% | CCCCCCCCCCCCCCCC(=O)N[C@H](Cc1ccc(OC)cc1)C(=O)CP(=O)(O)O
10 | 101% | 76% | 97% | CCCCCCCCCCCCCCCC(=O)N[C@H](Cc1ccc(OCCC(C)C)cc1)C(=O)CP(=O)(O)O
11 | 97% | 75% | 104% | CCCCCCCCCCCCCCCC(=O)N[C@H](Cc1ccc(OCCC)cc1)C(=O)CP(=O)(O)O
12 | 84% |  | 93% | CCCCCCCCCCCCCCCC(=O)N[C@H](Cc1ccc(OCCCCC)cc1)C(=O)CP(=O)(O)O
13 | 70% | 57% | 85% | CCCCCCCCCCCCCCCC(=O)N[C@H](Cc1ccc(OCc2cc(OCC(F)(F)F)ccn2)cc1)C(=O)CP(=O)(O)O
14 | 82% | 76% |  | CCCCCCCCCCCCCCCC(=O)N[C@H](Cc1ccc(OCc2ccccc2)cc1)C(=O)CP(=O)(O)O
15 | 68% | 52% | 78% | CCCCCCCCCCCCCCCC(=O)N[C@H](Cc1ccc(OCc2ccccn2)cc1)C(=O)CP(=O)(O)O
16 | 74% | 26% | 71% | CCCCCCCCCCCCCCCC(=O)N[C@H](Cc1ccc(OCc2ncc(C)c(OC)c2C)cc1)C(=O)CP(=O)(O)O
17 | 80% | 67% | 84% | CCCCCCCCCCCCCCCC(=O)N[C@H](Cc1ccc(OCC2CCCCC2)cc1)C(O)CP(=O)(O)O (single isomer, unassigned)
18 | 45% | 15% |  | CCCCCCCC/C=C/CCCCCCCC(=O)N[C@@H](Cc1ccc(OCc2ncc(C)c(OC)c2C)cc1)C(O)CP(=O)(O)O (single isomer, unassigned; diastereomer a)

Row | residual activity (Autotaxin (Homo sapiens) [1]) | residual activity (Autotaxin (Homo sapiens) [2]) | residual activity (Autotaxin (Homo sapiens) [3]) | Compound
19 | 99% | 67% |  | CCCCCCCCCCCCCC(=O)N[C@H](Cc1ccc(OCc2ncc(C)c(OC)c2C)cc1)C(O)CP(=O)(O)O (single isomer, unassigned; diastereomer a)
20 | 56% | 36% | 77% | CCCCCCCCCCCCCCCC(=O)N[C@@H](Cc1ccc(OC)cc1)C(O)CP(=O)(O)O (single isomer, unassigned; diastereomer a)
21 | 97% | 77% | 110% | CCCCCCCCCCCCCCCC(=O)N[C@@H](Cc1ccc(OCCC)cc1)C(O)CP(=O)(O)O (single isomer, unassigned; diastereomer a)
22 | 83% | 67% | 98% | CCCCCCCCCCCCCCCC(=O)N[C@@H](Cc1ccc(OCCCCC)cc1)C(O)CP(=O)(O)O (single isomer, unassigned; diastereomer a)
23 | 77% | 68% | 97% | CCCCCCCCCCCCCCCC(=O)N[C@@H](Cc1ccc(OCc2ccccc2)cc1)C(O)CP(=O)(O)O (single isomer, unassigned; diastereomer a)
24 | 81% | 52% | 104% | CCCCCCCCCCCCCCCC(=O)N[C@@H](Cc1ccc(OCc2ccccn2)cc1)C(O)CP(=O)(O)O (single isomer, unassigned; diastereomer a)
25 | 78% | 57% | 100% | CCCCCCCCCCCCCCCC(=O)N[C@H](Cc1ccc(OC)cc1)C(O)CP(=O)(O)O (single isomer, unassigned; diastereomer a)
26 | 104% | 72% | 103% | CCCCCCCCCCCCCCCC(=O)N[C@H](Cc1ccc(OCCC(C)C)cc1)C(O)CP(=O)(O)O (single isomer, unassigned; diastereomer a)
27 | 85% | 80% | 81% | CCCCCCCCCCCCCCCC(=O)N[C@H](Cc1ccc(OCCCCC)cc1)C(O)CP(=O)(O)O (single isomer, unassigned; diastereomer a)
28 | 84% | 55% | 92% | CCCCCCCCCCCCCCCC(=O)N[C@H](Cc1ccc(OCc2cc(OCC(F)(F)F)ccn2)cc1)C(O)CP(=O)(O)O (single isomer, unassigned; diastereomer a)
29 | 95% | 63% | 108% | CCCCCCCCCCCCCCCC(=O)N[C@H](Cc1ccc(OCc2ncc(C)c(OC)c2C)cc1)C(O)CP(=O)(O)O (single isomer, unassigned; diastereomer a)
30 | 45% | 10% | 64% | CCCCCCCCCCCCCCCCCCCC(=O)N[C@@H](Cc1ccc(OCc2ncc(C)c(OC)c2C)cc1)C(O)CP(=O)(O)O (single isomer, unassigned; diastereomer a)
31 | 74% | 65% |  | CCCCCCCCCCCCCCCC(=O)N[C@@H](Cc1ccc(OCc2ccccn2)cc1)C(O)CP(=O)(O)O (single isomer, unassigned; diastereomer b)
32 | 104% | 94% |  | CCCCCCCCCCCCCCCC(=O)N[C@H](Cc1ccc(OCCC(C)C)cc1)C(O)CP(=O)(O)O (single isomer, unassigned; diastereomer b)
33 | 84% | 64% |  | CCCCCCCCCCCCCCCC(=O)N[C@H](Cc1ccc(OCc2cc(OCC(F)(F)F)ccn2)cc1)C(O)CP(=O)(O)O (single isomer, unassigned; diastereomer b)
34 | 90% | 62% |  | CCCCCCCCCCCCCCCCCC(=O)N[C@@H](Cc1ccc(OCc2ncc(C)c(OC)c2C)cc1)C(O)CP(=O)(O)O (single isomer, unassigned; diastereomer b)
35 |  | 35% |  | CCCCCCCCCCCCCC(=O)N[C@H](Cc1ccc(OCc2ncc(C)c(OC)c2C)cc1)C(O)CP(=O)(O)O (stereo in doubt; f38)
